Measurements published in patent US20210205329A1 (The University of North Carolina at Chapel Hill, priority 2018, published 2021).

Test system: RAW264.7 cells
Assay: Non-activated RAW264.7 cells in the absence of LPS (immunoblotting)
Format: cell-based, mouse
Details: 1 μM, 24 hrs
Method: FIGS. 3A and 3B depict neurosteroids targeting the activated TLR4 signal by inhibiting TLR4/MD-2 binding. (FIG. 3A) 3α,5α-THP and pregnenolone specifically target the activated TLR4 signal. RAW264.7 cells untreated (CTL) or treated with 3α,5α-THP (THP; 1 μM) or pregnenolone (Preg; 1 μM) were harvested after 24 hrs. […] (FIG. 3B) Neurosteroids inhibit TLR4 signal activation in RAW264.7 ceils by blocking TLR4/MD-2 binding. RAW246.7 cells were treated with IPS (1 μg/ml) without or with 3α,5α-THP (THP; 1.0 μM) or pregnenolone (Preg; 1.0 μM) and protein extracts collected at 24 hrs post-treatment were immunoprecipitated (IP) with antibody to TLR4 or TLR2. The precipitates were immunoblotted (IB) with MD-2 antibody. Normal IgG was used as control. MD-2 co-precipitated with TLR4, but not normal IgG. […] HMGB1 co-precipitated with both TLR4 and TLR2 and its levels were not altered by the neurosteroids.
Immunoblotting. […] The total protein was determined by the bicinchoninic acid assay (BCA, Thermo Fisher Scientific, Waltham, Mass., USA, Cat. #23228 and Cat. #1859078). […] Quantitation was by densitometric scanning with a Bio-Rad GS-700 imaging densitometer. […] Each densitometric measurement was divided by the corresponding β-Actin densitometric measurement and the results [n=5/group] are expressed as the mean β-Actin-adjusted densitometric units±SEM. […]

| Compound | expression of pTAK1, TRAF6, and MCP1 in non-activated cells |
| --- | --- |
| CC(=O)[C@H]1CC[C@H]2[C@@H]3CC[C@H]4C[C@H](O)CC[C@]4(C)[C@H]3CC[C@]12C [3α,5α-THP, (3α,5α)3-hydroxypregnan-20-one] | failed to inhibit |
| CC(=O)[C@H]1CC[C@H]2[C@@H]3CC=C4C[C@@H](O)CC[C@]4(C)[C@H]3CC[C@]12C [pregnenolone] | failed to inhibit |
